{"source": "patent US20240216519A1", "about": "“SMALL HYDROPHOBIC PROTEIN DRUG CONJUGATES AND USES THEREOF” (priority 2021, published 2024)", "key": {"[1]": {"test_system": "C57BL/6J mice", "test": "Food intake of fasted C57BL/6J mice after i.p. injection (Example 8)", "type": "in vivo, mouse", "conditions": "200 nmol/kg i.p.", "description": "Female C57BL/6J mice were purchased from Charles Rivers. […] The animals were housed in individual cages, with access to food and water, and food intake was measured 1 and 2 hours after injection."}, "[2]": {"target": "human GLP-1 receptor (Homo sapiens, UniProt P43220)", "sequence (P43220 24-463)": "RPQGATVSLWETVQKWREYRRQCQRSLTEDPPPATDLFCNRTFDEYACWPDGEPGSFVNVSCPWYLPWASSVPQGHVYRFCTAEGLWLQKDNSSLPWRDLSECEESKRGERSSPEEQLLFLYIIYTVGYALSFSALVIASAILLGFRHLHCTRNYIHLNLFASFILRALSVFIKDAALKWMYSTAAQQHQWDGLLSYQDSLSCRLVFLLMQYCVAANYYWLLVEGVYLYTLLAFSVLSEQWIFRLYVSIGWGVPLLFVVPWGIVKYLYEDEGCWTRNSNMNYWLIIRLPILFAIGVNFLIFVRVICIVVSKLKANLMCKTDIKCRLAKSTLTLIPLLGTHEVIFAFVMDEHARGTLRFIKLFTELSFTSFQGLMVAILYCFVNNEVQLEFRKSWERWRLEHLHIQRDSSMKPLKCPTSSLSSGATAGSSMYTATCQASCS", "test": "cAMP accumulation, human GLP-1 receptor", "type": "cell-based", "design": "expressed in transfected cells; host or cells: COS-7 (methods)", "description": "(§1) Transient transfection of COS-7 cells was performed using calcium phosphate precipitation method. Briefly, a total of 10 ug of receptor DNA was diluted in TE-buffer ([…] Tris-HCl and 1 mM EDTA, pH 7.5) to a total of 105 ul, to which 15 ul of 2 M CaCl2) was added. The DNA-calcium co-precipitation was gently and slowly added to 120 ul 2× HEPES-buffered saline (HBS), and the transfection mixture was incubated at room temperature for 45 min. The total transfection mixture was added to the cells and incubated for 5 hours at 37° C. and 10% CO2, with the addition of 75 ul chloroquine to the growth medium. After 5 hours, the transfection medium was removed and replaced with regular growth medium. The cells were used in experiment 40-48 h after termination of the transfection procedure.\n(§2) For the cAMP assay, the COS-7 cells were seeded into 96-well plates (35.000 cells/well) and washed with HBS prior to incubation with 100 ul […] isobutylmethylzanthine (IBMX) for 30 min at 37° C. […] After incubation, the medium was removed, and cells were treated according to the protocol ‘three reagent addition’ procedure for the HitHunter cAMP XS+Assay by DiscoverX, USA."}, "[3]": {"test_system": "C57BL/6J mice", "test": "Acute food intake in lean mice, s.c. (Example 10)", "type": "in vivo, mouse", "description": "Female C57BL/6J mice were purchased from Charles Rivers. One week before study initiation the mice were single housed with free access to food and water. […] Thirty minutes prior peptide injection, all mice were administered subcutaneously with DDP-4 inhibitor Valine-pyrrolidide (1.5 mg/mouse). Food intake was measured after 1, 2, 4 and 14 hours (FIG. 14A-D).\nResults shown are combined data from five studies with an identical study design as described above. Between each study mice had at least one week washout period."}, "[4]": {"test_system": "Diet induced obese C57BL/6NTac male mice", "test": "Acute food intake in diet induced obese mice, s.c. (Example 11)", "type": "in vivo, mouse", "conditions": "15 nmol/kg s.c.", "description": "Diet induced obese C57BL/6NTac male mice were purchased from Taconic and continued on a high fat high sucrose diet with free access to water. One week after arrival, animals were double or single housed. […] Thirty minutes prior peptide injection, all mice were administered subcutaneously with DDP-4 inhibitor Valine-pyrrolidide (3 mg/mouse). Food intake was measured after 1, 2, 4 and 14 hours (FIG. 15A-D)."}, "[5]": {"test_system": "CaCo-2 cells", "test": "Transport study: diffusion of FITCs through tight monolayer of Caco2 cells", "type": "cell-based", "conditions": "basal addition of FITCs together with ligand", "description": "CaCo-2 cells were seeded in transwell chambers (basal) and two times TEER was measured until day 17-21 post seeding. TEER experiments were performed afte 17-21 days post seeding in wells with higher TEER as 1000 ohms (proof of a tight cell monolatyer. Caco2 cells were infected basal with mumps virus (MuV Jerryl Lynn strain, WT or SH-protein deletion virus) at a multiplicity of infection of 3. TEER was measured continuously performing CellZcope experiments.\nTransport studies were performed until day 17-21 post seeding as described above for the Cellzcope experiments. Ligand or control induced changes in the tightness of the cell monolayer was measured passively by the basal addition of the fluorescence dye (FITCs) together with the ligands or controls. Increase of FITCs apical was detected by collecting samples after different time points."}, "[6]": {"target": "T1, rat GLP-1 receptor (Rattus norvegicus, UniProt P32301)", "T1 construct": "expressed in transfected cells; host or cells: COS-7 (methods)", "T1 sequence (P32301 22-463)": "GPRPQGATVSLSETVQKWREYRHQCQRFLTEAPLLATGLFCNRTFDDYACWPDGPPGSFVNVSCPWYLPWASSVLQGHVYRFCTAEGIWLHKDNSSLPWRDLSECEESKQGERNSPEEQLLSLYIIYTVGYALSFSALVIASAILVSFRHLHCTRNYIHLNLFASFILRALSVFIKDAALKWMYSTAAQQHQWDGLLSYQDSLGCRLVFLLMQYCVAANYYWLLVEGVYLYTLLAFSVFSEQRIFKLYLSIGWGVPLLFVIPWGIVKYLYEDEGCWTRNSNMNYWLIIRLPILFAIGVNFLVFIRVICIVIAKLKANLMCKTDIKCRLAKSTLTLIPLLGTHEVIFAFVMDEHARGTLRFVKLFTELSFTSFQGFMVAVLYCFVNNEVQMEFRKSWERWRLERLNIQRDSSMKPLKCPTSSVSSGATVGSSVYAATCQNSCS", "test": "cAMP accumulation, rat GLP-1 receptor", "type": "cell-based", "conditions": "rat GLP-1R-expressing HEK293 cells; read-out: EC50, intracellular cAMP accumulation", "description": "as §1, §2"}, "[7]": {"test": "Plasma and CSF concentrations after injection into vena cava (RIA GLP-1 assay)", "type": "in vivo", "conditions": "rat", "description": "Male Sprague Dawley rats were purchased from Charles Rivers. Animals were anesthetized by hypnorm/dormicum, and restrained in a stereotactic instrument. […] Blood samples were collected prior to the injection of test compounds and straight after CSF aspiration.\nThe assay buffer was 100 mM Tris buffer with pH 8.5 containing 1% (wt/vol) human serum albumin, 0.01 mM valine-pyrrolidide and 500 KIE aprotinin (final concentrations). […] Plasma and CSF concentrations were measured after dilution in assay buffer. Free and bound moieties were separated with plasma-coated charcoal."}, "[8]": {"test_system": "choroid plexus of the GPR125 KO mouse brain", "test": "TAMRA labelled SH-protein binding to cryo-sections, GPR125 KO mouse brain", "conditions": "1 h incubation", "description": "(§3) SH protein (SEQ ID NO: 74) with a N-terminal carboxytetramethyl rhodamine attached through its carboxyl-group to the N-terminal alpha amino-group of the first Methionine was used for making the TAMRA labelled SH-protein (SEQ ID NO: 129). A mixture of 5-(and-6)-Carboxytetramethylrhodamine was used.\n(§4) A whole body perfusion was performed of mice and brains were dissected and frozen at −80C. Cryo-sections of mouse brains (WT and GPR125 KO mouse (Spina et al. 2021)) were generated and the TAMRA-labelled SH-protein was incubated on the cryosections at different concentrations or buffer. Afterwards the sections were mounted with mounting media containing a DAPI stain."}, "[9]": {"test_system": "choroid plexus of the WT mouse brain", "test": "TAMRA labelled SH-protein binding to cryo-sections, WT mouse brain", "conditions": "1 h incubation", "description": "as §3, §4"}, "[10]": {"conditions": "CSF 10 min after i.v. injection"}}, "note": "Where “and” joins values, the source holds several entries; their conditions need not be identical. Equal entries are not always repeated. Where no end group is shown, it is not given here. TAMRA = carboxytetramethyl rhodamine on alpha-amino group of Met1"}
{"molecule": "CC[C@H](C)[C@H](NC(=O)[C@H](C)NC(=O)[C@@H]1CCCN1)C(=O)N[C@@H](CCC(N)=O)C(=O)N1CCC[C@H]1C(=O)N1CCC[C@H]1C(=O)N[C@@H](CC(C)C)C(=O)N[C@@H](Cc1ccc(O)cc1)C(=O)N[C@@H](CC(C)C)C(=O)N[C@H](C(=O)NCCOCCOCC(=O)NCCCC[C@H](NC(=O)[C@H](C)NC(=O)[C@H](C)NC(=O)[C@H](CCC(N)=O)NC(=O)CNC(=O)[C@H](CCC(=O)O)NC(=O)[C@H](CC(C)C)NC(=O)[C@H](Cc1ccc(O)cc1)NC(=O)[C@H](CO)NC(=O)[C@H](CO)NC(=O)[C@@H](NC(=O)[C@H](CC(=O)O)NC(=O)[C@H](CO)NC(=O)[C@@H](NC(=O)[C@H](Cc1ccccc1)NC(=O)[C@@H](NC(=O)CNC(=O)[C@H](CCC(=O)O)NC(=O)[C@H](C)NC(=O)[C@@H](N)Cc1c[nH]cn1)[C@@H](C)O)[C@@H](C)O)C(C)C)C(=O)N[C@@H](CCC(=O)O)C(=O)N[C@@H](Cc1ccccc1)C(=O)N[C@H](C(=O)N[C@@H](C)C(=O)N[C@@H](Cc1c[nH]c2ccccc12)C(=O)N[C@@H](CC(C)C)C(=O)N[C@H](C(=O)N[C@@H](CCCNC(=N)N)C(=O)NCC(=O)N[C@@H](CCCNC(=N)N)C(N)=O)C(C)C)[C@@H](C)CC)[C@@H](C)O", "note": "[SH(2-11)-GLP-1(7-36)]", "values": [{"measurement": "food intake compared to vehicle", "setting": "[1]; 1 hour after injection", "value": "decreases the food intake significantly"}, {"measurement": "food intake compared to vehicle", "setting": "[1]; 2 hours after injection", "value": "decreases the food intake significantly"}, {"measurement": "EC50", "setting": "[2]", "value": 0.13, "unit": "nM"}, {"measurement": "food intake compared to vehicle", "setting": "[3]; 15 nmol/kg s.c., after 1 hour", "value": "decreased food intake significantly"}, {"measurement": "food intake compared to vehicle", "setting": "[3]; 15 nmol/kg s.c., after 2 hours", "value": "decreased food intake significantly"}, {"measurement": "food intake compared to vehicle", "setting": "[3]; 15 nmol/kg s.c., after 4 hours", "value": "decreased food intake significantly"}, {"measurement": "food intake compared to vehicle", "setting": "[3]; 30 nmol/kg s.c., after 1 hour", "value": "decreased their food intake significantly"}, {"measurement": "food intake compared to vehicle", "setting": "[3]; 30 nmol/kg s.c., after 2 hours", "value": "decreased their food intake significantly"}, {"measurement": "food intake compared to vehicle", "setting": "[3]; 30 nmol/kg s.c., after 4 hours", "value": "still present"}, {"measurement": "food intake compared to vehicle", "setting": "[3]; 30 nmol/kg s.c., after 14 hours", "value": "significant lower food intake"}, {"measurement": "food intake compared to vehicle", "setting": "[4]; after 1 hour, conjugate also vs GLP-1(7-36)", "value": "decreased food intake significantly"}, {"measurement": "food intake compared to vehicle", "setting": "[4]; after 2 hours, conjugate also vs GLP-1(7-36)", "value": "decreased food intake significantly"}, {"measurement": "food intake compared to vehicle", "setting": "[4]; after 4 hours, conjugate also vs GLP-1(7-36)", "value": "decreased food intake significantly"}, {"measurement": "food intake compared to vehicle", "setting": "[4]; after 14 hours", "value": "significantly decreased"}, {"measurement": "integrity of tight monolayer of CaCO-2 cells (uptake of fluorescent dye FITCs)", "setting": "[5]", "value": "decreased integrity"}, {"measurement": "EC50", "setting": "[6]", "value": 0.13, "unit": "nM"}, {"measurement": "level at time molar at 10 min", "setting": "[7]; male, Sprague Dawley, cerebrospinal fluid (CSF), iv, CSF 10 minutes after injection into vena cava, SH(2-11)-GLP-1 500, GLP-1 50 (injection), read-out: CSF conc", "value": 277, "unit": "µM"}, {"measurement": "detectable in CSF by RIA GLP-1 assay", "setting": "[7]; 10 min after i.v. injection", "value": "detectable"}, {"measurement": "amount detectable within the CSF, of the total injected concentration", "setting": "[7]; [10]", "value": "approximately 55%"}, {"measurement": "concentrated more in the CSF compared to GLP-1(7-36)", "setting": "[7]; [10]", "value": 10, "unit": "times"}, {"measurement": "Ratio (CSF conc to injection conc)", "setting": "[7]; CSF 10 minutes after injection", "value": 0.554}, {"measurement": "higher presence within the CSF", "setting": "[7]; compared to GLP-1(7-36)", "value": 10, "unit": "fold"}]}
{"molecule": "TAMRA labelled SH-protein: SH protein (SEQ ID NO: 74) with N-terminal carboxytetramethyl rhodamine on the alpha amino-group of the first Methionine ({TAMRA}-MPAIQPPLYLTFLLLILLYLIITLYVWIILTVTYKTAVRHAALYQRSFFHWSFDHSL)", "values": [{"measurement": "concentrations at which binding to the choroid plexus is seen (only at higher concentrations)", "setting": "[8]", "value": "22 µM and 11 µM"}, {"measurement": "concentration at which binding to the choroid plexus is still seen", "setting": "[9]", "value": "2,25 UM"}]}
